The results in this text go back to article PMC6213309, “Antibacterial Activity and Mechanism of Action of Bovine Lactoferricin Derivatives with Symmetrical Amino Acid Sequences” (International Journal of Molecular Sciences, 2018).

What is called cell viability is the share of living cells, or the viability signal relative to a control. A lower cell viability goes with a greater loss of cells. What is called MIC is the lowest concentration found to suppress growth. Low readings indicate inhibition by little substance, high ones a need for much substance.

The test system of series [1] is HEK293 cells. Nature of the series: Cytotoxicity, MTT assay. The series is classed as cell-based, human. Particulars: 20–24 h. The method, then:
The cytotoxicity of each peptide was determined in HEK293 cells using the thiazolylblue (MTT) assay as described by Zhu. Briefly, HEK293 cells were subcultured overnight in 96-well plates with 10% fetal calf serum and […] at 37 °C in 5% CO2. The cell suspension was then prepared. Two-fold serial dilutions of the peptides were prepared using DMEM. Cell suspensions were added to the plates and incubated for 20–24 h at 37 °C in a cell incubator. Next, 40 μL MTT solution was added to every well, and the plates were incubated for 4 h at 37 °C. Finally, 150 μL DMSO was added to each well, the plates were shaken for 10 min, and the absorbance was measured at 492 nm using a microplate reader.
A general note: Tetrazolium assays rely on reduction of a dye to a coloured formazan, in cell work by metabolically active cells.

Series [2] relates to S. epidermidis ATCC 12228. The series is classed as cell-based.
Experimental: (§2) The antimicrobial activity of the peptides were defined as the minimum inhibitory concentrations (MIC) according to the Clinical and Laboratory Standards Institute broth microdilution method as described previously [47]. Briefly, 50 μL two-fold serial dilutions of peptides (with final concentrations ranging from 0 μM to 256 μM) and 50 μL bacterial fluids diluted with MHB were added to 96-well microtiter plates. The plates were then incubated at 37 °C for 18 h.
In series [3] the test system is Salmonella typhimurium ATCC 14028. It is filed as cell-based.
Experimental: as §2
The test system of series [4] is E. coli UB 1005. The series is classed as cell-based.
Experimental: as §2
The subject of series [5] is all microbial strains in this table. Briefly: Geometric mean of MICs and therapeutic index. The series is classed as cell-based. Particulars: nine strains of Table 2.
Series [6] relates to Salmonella enterica subsp. CMCC 50071. To be noted: MHB, 37 °C, 18 h, peptides 0-256 μM, triplicate samples. How it is done: (§1) The antimicrobial activity of the peptides were defined as the minimum inhibitory concentrations (MIC) according to the Clinical and Laboratory Standards Institute broth microdilution method as described previously. Briefly, 50 μL two-fold serial dilutions of peptides (with final concentrations ranging from 0 μM to 256 μM) and 50 μL bacterial fluids diluted with MHB were added to 96-well microtiter plates. The plates were then incubated at 37 °C for 18 h.

Series [7] has as its system E. coli ATCC25922. Particulars: for MIC after Pepsin: peptide treated with 1 mg/mL pepsin; for MIC after Trypsin: peptide treated with 1 mg/mL trypsin. How it is done: as §1
We assessed the salt stability, thermal stability, and enzymatic stability of the AMPs. Briefly, E. coli ATCC25922 was selected as the test bacterium. The control group was untreated peptides. Different concentrations of salts (150 mM NaCl, 4.5 mM KCl, 6 μM NH4Cl, 1 mM MgCl2, […], 8 mM […], 2.5 mM CaCl2, and 4 mM FeCl3) were added to the incubation buffer to examine the effect of each salt on the antimicrobial activities of the peptides. AMPs were treated for 1 h at 100 °C to test the thermal stability. AMPs were also treated with trypsin, pepsin, papain, and protease K at a concentration of 1 mg/mL for 1 h at 37 °C to test enzyme stability.

The test system of series [8] is S. aureus ATCC 25923. The series is classed as cell-based.
The subject of series [9] is E. coli ATCC 25922. It is filed as cell-based.
Experimental: as §2
Series [10] concerns S. aureus ATCC 29213. It is filed as cell-based. Particulars: S. aureus ATCC 29213; MHB, 37 °C, 18 h; peptides 0-256 μM; triplicate samples.
Series [11] has as its system Salmonella typhimurium C 7731. It is filed as cell-based.
Experimental: as §2
Series [12] has as its system Salmonella pullorum C 7913. It is filed as cell-based. To be noted: 18 h.
Series [13] deals with E. coli ATCC25922. Briefly: Flow cytometry, PI staining of membrane damage. The series is classed as cell-based. To be noted: 30 min, 37 °C. How it is done:
Flow cytometry can quantify the amount of cells with membrane damage as reported previously. Briefly, E. coli ATCC 25922 grown to the logarithmic phase were centrifuged and re-suspended to an OD600 nm of 0.2 in PBS (pH 7.4). The suspensions were mixed with each peptide at 1/2× MIC or 1× MIC and incubated for 30 min at 37 °C with constant shaking (140 rpm). The cells were then harvested by centrifugation, washed three times with PBS, and incubated with Propidium Iodide (PI) at a final concentration of […] for 30 min at 4 °C. Finally, the unbound dye was removed by washing with an excess amount of PBS. The data were recorded using fluorescence-activated cell sorting (Becton Dickinson, Franklin Lakes NJ, USA).
In general terms: Flow cytometry measures light scatter and fluorescence of single cells or particles in a stream.

Series [14] has as its system human red blood cells (hRBCs). Briefly: Hemolytic activity. To be noted: lowest concentration causing 5% hemolysis of hRBCs; 1% hRBCs in PBS pH 7.2, 37 °C, 1 h, absorbance 570 nm. It is filed as cell-based. How it is done:
Hemolytic activity against human red blood cells (hRBCs) was determined as described before. Briefly, 1 mL of fresh hRBCs was centrifuged in PBS (pH 7.2). After washing two times, the hRBCs were resuspended with PBS at a concentration of 1%. Next, 50 μL of the hRBCs solution was added to 50 μL PBS containing two-fold serial dilutions of peptides in each well. The plates were then incubated at 37 °C for 1 h and centrifuged at 1000× g for 5 min. The supernatants were removed, and the release of hemoglobin was determined by measuring the absorbance at 570 nm using a microplate reader (Bio-Rad, Hercules CA, USA). Erythrocyte suspensions in PBS and 0.1% Triton X-100 were used as negative and positive controls, respectively. Melittin was the control peptide.

Where [15] appears, read: E. coli ATCC25922, untreated peptides.

Like-named read-outs stand apart in the source and are kept apart here. Ends that are not written are not given here.

For the compound `CC[C@H](C)[C@H](NC(=O)CN)C(=O)NCC(=O)N[C@@H](C)C(=O)N[C@H](C(=O)N[C@@H](CC(C)C)C(=O)N[C@@H](CCCCN)C(=O)N[C@H](C(=O)N[C@@H](CC(C)C)C(=O)N[C@H](C(=O)N[C@H](C(=O)NCC(=O)N[C@@H](CC(C)C)C(=O)N1CCC[C@H]1C(=O)N[C@@H](C)C(=O)N[C@@H](CC(C)C)C(=O)N[C@H](C(=O)N[C@@H](CO)C(=O)N[C@@H](Cc1c[nH]c2ccccc12)C(=O)N[C@H](C(=O)N[C@@H](CCCCN)C(=O)N[C@@H](CCCNC(=N)N)C(=O)N[C@@H](CCCCN)C(=O)N[C@@H](CCCNC(=N)N)C(=O)N[C@@H](CCC(N)=O)C(=O)N[C@@H](CCC(N)=O)C(N)=O)[C@@H](C)CC)[C@@H](C)CC)[C@@H](C)O)[C@@H](C)O)C(C)C)C(C)C` [melittin], the cell viability in [1] (4 μM) is 41.95%; in series [1] (8 μM), 23.40%; in series [1] (16 μM), 0%.

The compound FWRRWQWRRWF-NH2 [FW-WF] came in with a minimal inhibitory concentration (MIC) in [2] (ATCC 12228, 18 h) of 8 µM. The MIC in [3] (ATCC 14028, 18 h) was 128 µM. Besides, the minimal inhibitory concentration (MIC) in series [4] (UB 1005, 18 h) came to 16 µM. The “GM (geometric mean of MIC values from all microbial strains)” value in series [5] amounted to 78.67 µM. This compound also showed a minimal inhibitory concentration (MIC) in series [6] of more than 128 µM. For the same compound, in series [7] (ATCC25922, 1 h), the “MIC after Papain” value was determined as 4 µM, the “MIC after Protease K” value came out at 16 µM and the “MIC following heating at 100 °C” value was 8 µM. Also, in [7] (ATCC25922, 18 h), the “MIC in the presence of Ca2+” value turned out to be 8 µM, the “MIC in the presence of Fe3+” value was 4 µM, the “MIC in the presence of K+” value was 4 µM and the “MIC in the presence of Mg2+” value stood at 4 µM. In [7] (ATCC25922, 18 h), the “MIC in the presence of NH4+” value came to 2 µM; the “MIC in the presence of Na+” value came to 8 µM; the “MIC in the presence of Zn2+” value worked out at 4 µM; the “MIC, Control (enzymatic stability)” value worked out at 4 µM. Further, in series [7] (ATCC25922, 18 h), the “MIC, Control (salt stability)” value came out at 4 µM and the “MIC, Control (thermal stability)” value came to 4 µM. In series [7] (E. coli ATCC25922, 1 h, 37 °C), the “MIC after Pepsin” value was more than 128 µM and the “MIC after Trypsin” value was more than 128 µM. For the same compound, in series [8] (ATCC 25923, 18 h), the MIC was 16 µM. The MIC in [9] (ATCC25922, 18 h) worked out at 4 µM. The MIC in [10] is more than 128 µM. Further, the MIC in series [11] (murium C 7731, 18 h) is 16 µM. This compound gave an MIC in [12] of 8 µM. In addition, the “survival rates of the cells (no PI signal)” value in series [13] (1/2× MIC) worked out at 82.5%. Moreover, the “survival rates of the cells (no PI signal)” value in [13] (1× MIC) was determined as 58.7%.

As to “KCRRWQWRMKK-NH2 [LFcinB18–28, reference compound]”, in series [14], the “MHC (minimum hemolytic concentration)” value is more than 256 µM. For the same compound, the MIC in series [2] (S. epidermidis ATCC 12228, MHB, 37 °C, 18 h, peptides 0-256 μM, triplicate samples) was more than 128 µM; in [3] (Salmonella typhimurium ATCC 14028, MHB, 37 °C, 18 h, peptides 0-256 μM, triplicate samples), more than 128 µM; in series [4] (E. coli UB 1005, MHB, 37 °C, 18 h, peptides 0-256 μM, triplicate samples), 128 µM; in series [6], more than 128 µM; in series [8] (S. aureus ATCC 25923, MHB, 37 °C, 18 h, peptides 0-256 μM, triplicate samples), 128 µM; in series [9] (E. coli ATCC 25922, MHB, 37 °C, 18 h, peptides 0-256 μM, triplicate samples), 16 µM. In addition, the MIC in [10] was more than 128 µM; in series [11] (Salmonella typhimurium C 7731, MHB, 37 °C, 18 h, peptides 0-256 μM, triplicate samples) it was more than 128 µM; in series [12] (Salmonella pullorum C 7913, MHB, 37 °C, peptides 0-256 μM, triplicate samples), more than 128 µM. Also, the “MIC in the presence of NH4+” value in series [7] (E. coli ATCC25922, 6 μM NH4Cl) amounted to 8 µM. Further, the “MIC in the presence of Mg2+” value in series [7] (E. coli ATCC25922, 1 mM MgCl2) was 16 µM. Moreover, in series [7] (E. coli ATCC25922, 2.5 mM CaCl2), the “MIC in the presence of Ca2+” value turned out to be 16 µM. Besides, the “MIC in the presence of Fe3+” value in series [7] (E. coli ATCC25922, 4 mM FeCl3) was 4 µM. Moreover, in series [7] (E. coli ATCC25922, 4.5 mM KCl), the “MIC in the presence of K+” value was 16 µM. For the same compound, the “MIC in the presence of Zn2+” value in series [7] (E. coli ATCC25922, 8 mM ZnCl3) was 8 µM. For the same compound, the “MIC in the presence of Na+” value in [7] (E. coli ATCC25922, 150 mM NaCl) came to 16 µM. For the same compound, in series [7] (E. coli ATCC25922, peptide treated 1 h at 100 °C), the “MIC following heating at 100 °C” value was 16 µM. Besides, the “MIC after Papain” value in [7] (E. coli ATCC25922, peptide treated with 1 mg/mL papain, 1 h, 37 °C) was more than 128 µM. For the same compound, the “MIC after Pepsin” value in series [7] (E. coli ATCC25922, 1 h, 37 °C) was more than 128 µM. For the same compound, the “MIC after Protease K” value in series [7] (E. coli ATCC25922, peptide treated with 1 mg/mL protease K, 1 h, 37 °C) is more than 128 µM. Further, the “MIC after Trypsin” value in [7] (E. coli ATCC25922, 1 h, 37 °C) is more than 128 µM. In [7] (setting [15]), the “MIC, Control (enzymatic stability)” value came out at 16 µM. For the same compound, the “MIC, Control (thermal stability)” value in [7] (setting [15]) is 16 µM. In series [7] (E. coli ATCC25922, untreated peptides, no added salt), the “MIC, Control (salt stability)” value is 16 µM.
